For experiment [1], the target named is T1, insulin receptor (InsR Kinase Assay) (Homo sapiens, UniProt P06213).
T1 construct: commercial kinase from InsR Kinase Assay (Promega)
Nature of the experiment: InsR kinase assay, ADP-Glo (ADP production). The experiment is classed as biochemical. To be noted: activator; 50 μM ATP, substrate peptide, room temperature, 60 min.

For experiment [2], the target named is T2, IRβ (unphosphorylated beta subunit of insulin receptor) (Homo sapiens, UniProt P06213).
T2 construct: gene INSR; beta subunit, commercial recombinant protein; unphosphorylated; immobilised on CM5 chip
T2 sequence (P06213 763-1382 limits assumed): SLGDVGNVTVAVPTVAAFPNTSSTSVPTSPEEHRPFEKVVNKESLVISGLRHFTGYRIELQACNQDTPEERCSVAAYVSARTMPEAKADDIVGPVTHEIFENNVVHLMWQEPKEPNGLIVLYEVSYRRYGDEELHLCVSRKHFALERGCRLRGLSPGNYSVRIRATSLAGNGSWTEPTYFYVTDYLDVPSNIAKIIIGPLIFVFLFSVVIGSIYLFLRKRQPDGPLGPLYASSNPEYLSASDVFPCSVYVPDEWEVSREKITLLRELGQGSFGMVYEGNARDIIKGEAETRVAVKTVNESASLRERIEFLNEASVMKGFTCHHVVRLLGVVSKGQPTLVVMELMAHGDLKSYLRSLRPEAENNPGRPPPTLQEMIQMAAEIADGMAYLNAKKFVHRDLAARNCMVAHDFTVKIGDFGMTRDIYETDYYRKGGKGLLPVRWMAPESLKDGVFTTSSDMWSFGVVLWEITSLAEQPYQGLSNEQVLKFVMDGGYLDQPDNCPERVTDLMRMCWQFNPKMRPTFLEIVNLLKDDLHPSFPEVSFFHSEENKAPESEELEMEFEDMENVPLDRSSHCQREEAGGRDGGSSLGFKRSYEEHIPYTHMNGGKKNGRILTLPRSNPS
The experiment in a line: surface plasmon resonance (Biacore T200), IRβ immobilised on CM5. The experiment is classed as binding.

Experiment [3] addresses T1, insulin receptor (InsR Kinase Assay). Nature of the experiment: InsR kinase assay, ADP-Glo (ADP production). The experiment is classed as biochemical. Particulars: 50 μM ATP, substrate peptide, room temperature; turnover to ADP only.

The text below walks through data of PMC8850660, “The P300 acetyltransferase inhibitor C646 promotes membrane translocation of insulin receptor protein substrate and interaction with the insulin receptor” (The Journal of Biological Chemistry, 2022).

T1 sequence (P06213 1011-1382 limits assumed): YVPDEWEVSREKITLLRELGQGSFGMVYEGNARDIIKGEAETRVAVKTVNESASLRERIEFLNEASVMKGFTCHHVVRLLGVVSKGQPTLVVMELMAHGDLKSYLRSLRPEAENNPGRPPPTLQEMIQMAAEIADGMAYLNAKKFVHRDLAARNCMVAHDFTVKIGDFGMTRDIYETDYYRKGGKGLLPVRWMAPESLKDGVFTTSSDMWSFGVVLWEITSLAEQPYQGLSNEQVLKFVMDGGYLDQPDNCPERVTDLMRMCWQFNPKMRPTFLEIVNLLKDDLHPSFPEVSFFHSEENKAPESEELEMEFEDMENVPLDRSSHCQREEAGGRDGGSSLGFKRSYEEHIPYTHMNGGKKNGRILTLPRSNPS

As for `CC1=NN(c2ccc(C(=O)O)cc2)C(=O)C1=Cc1ccc(-c2cc(C)c(C)cc2[N+](=O)[O-])o1` [C646], the “% increase of kinase activity at 100 nM” value in experiment [1] was 50%. The compound also showed a Kd in experiment [2] of 4.34 µM.

For `Nc1ncnc2c1ncn2[C@@H]1O[C@H](COP(=O)(O)OP(=O)(O)OP(=O)(O)O)[C@@H](O)[C@H]1O` [ATP], the “InsR kinase assay, ADP-Glo (ADP production)” value in experiment [3] is given as “found a linear curve of ADP production (consumption of ATP by insulin receptor)”.
